The source of these data is paper PMC8207694, “Nucleoside transporter-guided cytarabine-conjugated liposomes for intracellular methotrexate delivery and cooperative choriocarcinoma therapy” (Journal of Nanobiotechnology, 2021).

One data set deals with Pricell-0051 cells. The data set can be described thus: In vitro cytotoxicity, MTT assay. Particulars: Homo sapiens; Pricell-0051, 48 h, MTX-equivalent. It counts as cell-based. The procedure: (§1) The cytotoxicities of MTX formulations were assessed via MTT assay. The groups were as follows: MTX solution (free MTX), MTX plus DSPE-PEG2k-Cy (abbreviated as MTX + Cy-lipid, the molar ratio of Cy-lipid to MTX was about 1:5.0), Lipo@MTX, and Cy-Lipo@MTX. JEG-3 cells or Pricell-0051 cells were added to 96-well plates (1 × 10^4 cells/well). After 24 h, cells were rinsed using PBS and treated with MTX formulations (0.001–30 μg MTX-equivalent/mL) for 48 h at 37 °C [40]. Viability was assessed by adding 20 μL of MTT (5 mg/mL) per well for 4 h. Next, the medium was removed and formazan crystals were dissolved via the addition of 150 μL of DMSO. A microplate reader (Varioskan Flash 3001, Thermo Fisher Scientific, USA) was then used to assess absorbance at 490 nm.
Background: Tetrazolium dyes change colour on reduction, which living cells bring about.

The subject of data set [1] is JEG-3 cells. The data set can be described thus: In vitro cytotoxicity, MTT assay. Type of data set: cell-based. Particulars: Homo sapiens; JEG-3, 48 h, MTX-equivalent. The procedure: as §1
Data set [2] is described as follows: Pharmacokinetic study after intravenous administration. Type of data set: in vivo, SD rats. Particulars: rats. The procedure:
The advanced Automatic Blood Collection System (Instech, USA) was applied to study the pharmacokinetic feature of various MTX formulations. Female SD rats (200–220 g) were acclimatized at 25 ± 2 °C for 1 week before the experiments. Animals were randomized into 3 groups and each group contained 3 rats. Group I, II, and III were intravenously given free MTX, Lipo@MTX, and Cy-Lipo@MTX respectively at a dose of 10 mg MTX-equivalent/kg body weight. Blood (200 μL) was obtained at 0.25, 0.5, 1, 2, 4, 8, 12, 24, 48, and 72 h through jugular vein after administration. 150 μL of plasma was combined with 450 μL acetonitrile to precipitate proteins, and drug content of samples was analyzed by HPLC. The pharmacokinetic software (DAS 2.0) was used to assess key pharmacokinetic parameters including mean residence time (MRT), area under the curve (AUC), peak plasma concentration (Cmax), half-life (t1/2), and time to maximal plasma concentration (Tmax).

Data set [3] has as its system JEG-3 tumor models. Briefly: Survival of large tumor-bearing mice (Kaplan-Meier). Particulars: mice bearing larger tumors 300-500 mm^3; saline 26 days. It counts as in vivo. The procedure: (§2) When tumors were 50–100 mm^3 in size, nude mice were intravenously administrated with saline or MTX formulations (free MTX, MTX + Cy-lipid, Lipo@MTX, or Cy-Lipo@MTX, 5 mg MTX-equivalent/kg body weight, each group contained 6 mice) on day 6, 9, 12, 14, 18, and 21. On the 24th day, the mice were sacrificed, and the tumors, as well as the main organs, were excised, weighed, washed three times using saline, and subjected to fixation with 10% neutral buffered formalin. The tumor tissues were collected for H&E, TUNEL, and Ki67 staining. […] The survival of large tumor-bearing mice (300–500 mm^3 in size) was analyzed via Kaplan–Meier analysis (each group contained 5 mice).

Data set [4] concerns JEG-3 cells. Briefly: Cell cycle analysis (PI, flow cytometry). Particulars: 1 μg/mL MTX-equivalent, 24 h; control 5.44 ± 0.97%. Type of data set: cell-based, human. The procedure:
For cell cycle analysis, JEG-3 cells (10^5/well) were added to 6-well plates for 24 h and were then treated with culture medium or MTX formulation-contained culture medium at an equivalent MTX concentration (1 μg/mL) for another 24 h. Then, JEG-3 cells were collected (1000 rpm, 5 min) and fixed using 70% ethanol for 8 h at 4℃. After resuspended in PI/RNase Staining buffer for 30 min, the cell cycle was determined with flow cytometry.
A general note: A flow cytometer gives signals particle by particle.

Data set [5] deals with JEG-3 cells. The data set can be described thus: Mitochondrial transmembrane potential (JC-1, CLSM). Type of data set: cell-based, human. Particulars: 1 μg/mL MTX-equivalent, 24 h. The procedure: Mitochondrial transmembrane potential changes induced by various MTX formulations were evaluated by the JC-1 probe. Briefly, JEG-3 cells were added to the confocal dish. Following culture for 24 h, the cells were treated with free MTX, MTX + Cy-lipid, Lipo@MTX, or Cy-Lipo@MTX at an equivalent MTX concentration (1 μg/mL) for 24 h. JC-1 solution was exchanged for cold PBS following two JC-1 staining buffer washes, after which samples were assessed by CLSM at λex (488 nm)/λem (530 nm) for green fluorescence and λex (525 nm)/λem (590 nm) for red fluorescence.

For data set [6], the system named is JEG-3 cells. The data set can be described thus: Apoptosis (FITC Annexin V, flow cytometry). It counts as cell-based, human. Particulars: 1 μg/mL MTX-equivalent, 24 h; control 10.39 ± 2.78%. The procedure:
Apoptosis of JEG-3 cells was detected using the FITC Annexin V Apoptosis Detection Kit I. The cells (10^5/well) were seeded in 6-well plates. Following culture for 24 h, cells were treated with culture medium or MTX formulation-contained culture medium at an equivalent MTX concentration (1 μg/mL) for another 24 h. All other protocols were conducted based on the provided directions. The cells were analyzed by flow cytometry.

On the set-up of data set [7]: method as in PMID 28415433. Particulars: cited from earlier work.
The subject of data set [8] is JEG-3 tumor models. Briefly: In vivo antitumor study. Details: species or system BALB/c nude mice. The procedure: as §2
The subject of data set [9] is JEG-3 cells. Briefly: Cell structure damage (bio-TEM). It counts as cell-based, human. Particulars: 1 μg/mL MTX-equivalent, 24 h. The procedure: Bio-TEM was applied for observing the cell structure and mitochondrial damage effect induced by MTX formulations. Briefly, JEG-3 cells were seeded in a 6 cm dish. After culturing for 24 h, the cells were treated with free MTX, MTX + Cy-lipid, Lipo@MTX, or Cy-Lipo@MTX at an equivalent MTX concentration (1 μg/mL) for another 24 h. Then, cells were digested, centrifuged, and fixed with 2.5% glutaraldehyde solution at 4 °C for more than 4 h. Finally, the bio-TEM observation was performed after sample preparation.

Where [10] appears, read: female, Sprague-Dawley (SD), rat, plasma, iv, 10 mg/kg, 10 mg MTX-equivalent/kg.

Usually IC50 stands for the concentration at which inhibition is half-maximal. As a reminder, the AUC(0-t) is the area under the concentration-time curve up to a stated or last time point. One may read the Cmax as the peak of the concentration-time curve. By clearance is commonly meant the volume of plasma or blood freed of the substance per unit of time. As to `CN(Cc1cnc2nc(N)nc(N)c2n1)c1ccc(C(=O)N[C@@H](CCC(=O)O)C(=O)O)cc1` [free MTX, Methotrexate], the IC50 with Pricell-0051 cells was determined as 32.2 µg/mL. Further, in the data set with JEG-3 cells [1], the IC50 was determined as 19.6 µg/mL. Further, in data set [2] (setting [10]), the AUC(0-t) turned out to be 62400 ± 21500 ng·h/mL, the Cmax came to 13500 ± 1960 ng/mL and the clearance was 1.43 mL/min. The MRT last in [2] (female, Sprague-Dawley (SD), rat, plasma, iv, 10 mg/kg, i.v., 10 mg MTX-equivalent/kg, read-out: MRT(0-t)) amounted to 6.27 ± 2.52 h. For the same compound, the half-life in [2] (female, Sprague-Dawley (SD), rat, plasma, iv, 10 mg/kg, i.v., 10 mg MTX-equivalent/kg, read-out: t1/2β (converted)) was 314 ± 163 min. Also, the concentration at 0.25 h in data set [2] (female, Sprague-Dawley (SD), rat, plasma, iv, after 0.25 h, i.v., 10 mg/kg, read-out: plasma MTX concentration) was 13500 ± 1960 ng/mL. Also, the concentration at 4 h in data set [2] (female, Sprague-Dawley (SD), rat, plasma, iv, after 4 h, i.v., 10 mg/kg, read-out: plasma MTX concentration) was 4590 ± 1610 ng/mL. The concentration at 12 h in data set [2] (female, Sprague-Dawley (SD), rat, plasma, iv, after 12 h, i.v., 10 mg/kg, read-out: plasma MTX concentration) worked out at 1140 ± 490 ng/mL. For the same compound, in [2] (female, Sprague-Dawley (SD), rat, plasma, iv, after 24 h, i.v., 10 mg/kg, read-out: plasma MTX concentration), the concentration at 24 h was 430 ± 360 ng/mL. In addition, the Vss in data set [2] (i.v., 10 mg MTX-equivalent/kg) is 0.58 ± 0.10 mg/kg/(mg/mL). This compound also came in with a median survival time with JEG-3 tumor models [3] of 28 days. Besides, in the data set on JEG-3 cells [4], the “JEG-3 cells arrested at the S phase” value is 11.59 ± 1.53%. Besides, the “effect on mitochondrial transmembrane potential (JC-1 red fluorescence)” value with JEG-3 cells [5] is on record as “a certain destructive effect on the MMP”. For the same compound, the “apoptotic percentage of JEG-3 cells” value in the data set on JEG-3 cells [6] was determined as 18.03 ± 2.25%. Moreover, the “solubility in acidic versus neutral solutions” value in data set [7] was “solubility of MTX in acidic solutions is greater than that in neutral solutions”. Moreover, the tumor volume in the data set on JEG-3 tumor models [8] (day 24, 5 mg MTX-equivalent/kg i.v., six treatments, saline 2211.35 ± 236.66) was determined as 1210.14 ± 285.62 mm^3. Also, the tumor weight in the data set with JEG-3 tumor models [8] (end of treatment cycle (day 24), saline 3.24 ± 0.60) worked out at 2.35 ± 0.32 g. The “cell structure and mitochondria (bio-TEM)” value with JEG-3 cells [9] was “cell structure was intact and the cell boundary was clearly visible”.
